# Experimental data as given in ChEMBL document CHEMBL1201862, “PubChem BioAssay data set” (2004).
# The source made the active and inactive calls.
# Experiments:
# [1] = target: T1, Short transient receptor potential channel 4 (Mus musculus, UniProt Q9QUQ5); experiment: block of DAMGO-driven TRPC4 calcium entry – cell-based, HEK293 TRPC4/mu-opioid, Fluo-4 calcium, dose response (AID 434942); assay type: functional;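 also: potency of inhibitors blocking the TRPC4 calcium response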
# T1 sequence (Q9QUQ5 whole entry): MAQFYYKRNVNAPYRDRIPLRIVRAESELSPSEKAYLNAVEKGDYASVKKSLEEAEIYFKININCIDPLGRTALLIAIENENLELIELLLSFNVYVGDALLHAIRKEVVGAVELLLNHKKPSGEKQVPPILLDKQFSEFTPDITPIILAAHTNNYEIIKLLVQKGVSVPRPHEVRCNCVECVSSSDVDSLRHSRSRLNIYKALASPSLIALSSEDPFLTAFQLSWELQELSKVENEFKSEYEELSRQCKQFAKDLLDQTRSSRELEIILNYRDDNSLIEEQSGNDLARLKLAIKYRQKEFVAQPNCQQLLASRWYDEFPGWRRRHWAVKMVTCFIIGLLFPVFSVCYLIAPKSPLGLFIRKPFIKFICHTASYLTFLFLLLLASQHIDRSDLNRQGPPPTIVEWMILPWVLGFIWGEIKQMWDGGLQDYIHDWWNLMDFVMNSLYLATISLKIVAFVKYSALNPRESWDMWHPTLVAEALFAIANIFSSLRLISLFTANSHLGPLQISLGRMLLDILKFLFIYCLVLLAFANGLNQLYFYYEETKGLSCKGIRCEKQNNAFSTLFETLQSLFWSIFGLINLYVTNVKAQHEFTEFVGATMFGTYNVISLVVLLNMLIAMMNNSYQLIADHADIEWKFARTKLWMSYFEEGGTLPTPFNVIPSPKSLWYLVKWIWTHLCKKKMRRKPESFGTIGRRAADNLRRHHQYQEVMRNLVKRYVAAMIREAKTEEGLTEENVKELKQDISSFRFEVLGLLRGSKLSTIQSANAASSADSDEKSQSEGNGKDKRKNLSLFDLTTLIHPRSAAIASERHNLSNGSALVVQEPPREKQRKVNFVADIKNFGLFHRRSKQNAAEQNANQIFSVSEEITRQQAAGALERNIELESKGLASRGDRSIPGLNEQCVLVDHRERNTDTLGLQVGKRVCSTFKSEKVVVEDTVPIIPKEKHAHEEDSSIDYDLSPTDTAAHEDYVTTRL
# [2] = viability of uninfected HEp-2 cells – cell-based, HTS, cytotoxicity control for RSV inhibitor project, dose response (AID 2410); assay type: functional; conditions: human respiratory syncytial virus
# [3] = target: DNA dC->dU-editing enzyme APOBEC-3A (Homo sapiens, UniProt P31941); experiment: A3A deaminase inhibition for selectivity – biochemical, dose response (AID 504722); assay type: functional
# [4] = target: DNA dC->dU-editing enzyme APOBEC-3G (Homo sapiens, UniProt Q9HC16); experiment: Dose Response confirmation of small molecule APOBEC3G DNA Deaminase Inhibitors via a fluorescence-based single-stranded DNA deaminase assay. [Related pubchem assays (depositor defined):AID493012, AID493028]; assay type: functional
# [5] = target: SUMO-activating enzyme (Homo sapiens, UniProt Q9UBT2); experiment: blockers of UBC9-mediated SUMO conjugation – biochemical, AlphaScreen, SUMOylation inhibitor project, confirmation (AID 2018); assay type: functional
# [6] = target: Trypsin (Sus scrofa, UniProt P00761); experiment: trypsin protease activity blockade – biochemical, quenched peptide fluorescence, cherry-pick, selectivity assay for Rce1 protease inhibitor project, dose response (AID 488789)
# [7] = target: T2, CAAX prenyl protease 2 (Saccharomyces cerevisiae S288c, UniProt Q03530); assay type: biochemical
# T2 sequence (Q03530 whole entry): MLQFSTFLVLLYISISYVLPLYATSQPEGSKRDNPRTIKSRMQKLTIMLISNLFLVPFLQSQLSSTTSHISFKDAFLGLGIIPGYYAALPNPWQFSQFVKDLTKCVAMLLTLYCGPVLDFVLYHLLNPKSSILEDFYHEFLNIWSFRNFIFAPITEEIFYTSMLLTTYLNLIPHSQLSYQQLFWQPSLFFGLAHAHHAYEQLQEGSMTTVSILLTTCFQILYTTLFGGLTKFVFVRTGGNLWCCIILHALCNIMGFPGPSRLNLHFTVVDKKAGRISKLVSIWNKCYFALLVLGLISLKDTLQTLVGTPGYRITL
# [8] = target: T3, Estrogen receptor (Homo sapiens, UniProt P03372);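 also: potency for inhibiting coactivator peptide recruitment to the receptor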
# T3 sequence (P03372 whole entry): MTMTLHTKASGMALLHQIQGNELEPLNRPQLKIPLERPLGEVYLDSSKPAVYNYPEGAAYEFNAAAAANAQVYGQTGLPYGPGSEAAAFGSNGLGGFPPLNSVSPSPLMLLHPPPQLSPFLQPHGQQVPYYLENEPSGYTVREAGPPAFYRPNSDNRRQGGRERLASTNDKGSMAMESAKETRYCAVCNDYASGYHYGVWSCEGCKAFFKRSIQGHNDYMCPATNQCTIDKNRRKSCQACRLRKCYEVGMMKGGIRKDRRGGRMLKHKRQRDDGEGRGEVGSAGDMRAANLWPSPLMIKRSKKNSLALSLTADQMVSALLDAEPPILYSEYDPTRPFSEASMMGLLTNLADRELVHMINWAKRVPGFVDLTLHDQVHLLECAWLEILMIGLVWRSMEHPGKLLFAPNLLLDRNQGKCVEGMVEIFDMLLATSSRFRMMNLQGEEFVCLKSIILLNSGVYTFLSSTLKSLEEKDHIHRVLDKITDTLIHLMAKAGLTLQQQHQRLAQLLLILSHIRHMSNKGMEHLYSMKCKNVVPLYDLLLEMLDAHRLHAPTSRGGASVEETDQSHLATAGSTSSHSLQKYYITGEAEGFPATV
# [9] = target: T4, Carboxy-terminal domain RNA polymerase II polypeptide A small phosphatase 1 (Homo sapiens, UniProt Q9GZU7); experiment: CTDSP1 inhibitors, concentration-response, biochemical, absorbance readout, ultra-high-throughput screen actives (AID 540297); assay type: functional
# T4 sequence (Q9GZU7 whole entry): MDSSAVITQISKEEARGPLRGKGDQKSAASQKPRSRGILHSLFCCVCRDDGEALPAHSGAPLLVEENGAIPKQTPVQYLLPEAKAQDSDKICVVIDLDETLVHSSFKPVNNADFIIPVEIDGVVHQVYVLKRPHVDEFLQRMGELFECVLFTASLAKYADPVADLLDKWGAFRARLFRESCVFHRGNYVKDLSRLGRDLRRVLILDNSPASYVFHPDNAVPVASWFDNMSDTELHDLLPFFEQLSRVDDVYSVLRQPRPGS
# [10] = system: Vero; experiment: cells; assay type: functional; conditions: Chlorocebus sabaeus
# [11] = system: Vero; experiment: cells; assay type: functional, cell-based; conditions: Chlorocebus sabaeus
# [12] = target: T5, Streptokinase A (Streptococcus pyogenes serotype M1, UniProt P10520); experiment: viability-normalized secreted streptokinase activity reduction – plasminogen activation absorbance, OD405, dose response (AID 1914); assay type: functional, Streptococcus pyogenes M1 GAS;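 also: secreted streptokinase activity via plasminogen activation per viability signal from cell pellet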
# T5 sequence (P10520 whole entry): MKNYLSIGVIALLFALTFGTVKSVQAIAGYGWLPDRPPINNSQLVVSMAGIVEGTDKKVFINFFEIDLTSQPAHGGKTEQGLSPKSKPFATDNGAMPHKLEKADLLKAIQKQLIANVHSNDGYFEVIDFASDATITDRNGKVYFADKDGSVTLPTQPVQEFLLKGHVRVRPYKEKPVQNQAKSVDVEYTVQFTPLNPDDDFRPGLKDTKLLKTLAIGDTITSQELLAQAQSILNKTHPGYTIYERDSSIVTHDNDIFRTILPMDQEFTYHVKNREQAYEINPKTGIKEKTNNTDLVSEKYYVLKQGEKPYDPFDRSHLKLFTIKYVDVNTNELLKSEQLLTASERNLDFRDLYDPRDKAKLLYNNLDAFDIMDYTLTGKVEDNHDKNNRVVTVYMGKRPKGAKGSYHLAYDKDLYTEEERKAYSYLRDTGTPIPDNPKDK
# [13] = THP-1 cell cytotoxicity, dose response, cytotoxicity control for non-replicating M. tuberculosis project (AID 489025); assay type: functional
# [14] = Vero E6 cell cytotoxicity, dose response, cytotoxicity control for non-replicating M. tuberculosis project, secondary assay (AID 492998); assay type: functional, VeroE6; conditions: Vero C1008
# [15] = cells; assay type: functional
# [16] = system: Streptococcus; experiment: GAS UMAA2166 growth inhibition – luminescence, BacTiterGlo, counter-screen for streptokinase expression inhibitor project, dose response (AID 1915); assay type: functional, organism-based;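 also: potency for reduction of bacterial viability or growth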
# [17] = system: Streptococcus sp. 'group A'; experiment: Streptococcus pyogenes SK(-)GAS viability under kanamycin – luminescence, BacTiterGlo, confirmation, counter-screen for streptokinase expression inhibitor project, dose response (AID 1900); assay type: functional, organism-based
# [18] = HEK-293T viability loss after treatment – luminescence, T-cell screen hits, cytotoxicity control for TCR NF-kB inhibitor project, dose response (AID 489026); assay type: functional, cell-based;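 also: cells exposed to compound about 14 hours before the viability readout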
# [19] = intracellular Trypanosoma cruzi inhibitors in host cells – cell-based, plate reader, cherry-pick samples, set 3, dose response (AID 651818); assay type: functional;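 also: compounds incubated with infected cells for about four days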
# [20] = target: T6, Rac GTPase-activating protein 1 (Homo sapiens, UniProt Q9H0H5); experiment: blockers of MgcRacGAP-driven Rac1 GTP hydrolysis – biochemical, ADP Hunter fluorescence, primary and confirmatory, confirmation (AID 624330); assay type: functional
# T6 sequence (Q9H0H5 whole entry): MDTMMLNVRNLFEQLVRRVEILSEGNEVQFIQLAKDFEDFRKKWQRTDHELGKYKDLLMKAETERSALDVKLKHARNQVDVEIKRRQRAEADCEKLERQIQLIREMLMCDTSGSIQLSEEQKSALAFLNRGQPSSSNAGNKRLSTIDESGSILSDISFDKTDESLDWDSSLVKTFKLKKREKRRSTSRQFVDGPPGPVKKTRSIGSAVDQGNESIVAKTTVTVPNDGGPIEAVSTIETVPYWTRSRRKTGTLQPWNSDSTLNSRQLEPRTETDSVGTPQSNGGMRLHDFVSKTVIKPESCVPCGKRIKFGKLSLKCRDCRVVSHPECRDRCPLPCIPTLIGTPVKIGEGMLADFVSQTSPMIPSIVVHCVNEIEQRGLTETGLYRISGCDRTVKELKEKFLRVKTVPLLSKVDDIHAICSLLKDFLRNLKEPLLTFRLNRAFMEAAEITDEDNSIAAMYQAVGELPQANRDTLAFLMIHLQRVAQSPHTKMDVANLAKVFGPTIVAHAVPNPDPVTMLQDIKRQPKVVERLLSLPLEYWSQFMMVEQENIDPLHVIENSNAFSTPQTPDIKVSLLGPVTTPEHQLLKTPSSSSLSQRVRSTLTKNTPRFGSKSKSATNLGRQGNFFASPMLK
# Sequence of DNA dC->dU-editing enzyme APOBEC-3A (P31941 whole entry): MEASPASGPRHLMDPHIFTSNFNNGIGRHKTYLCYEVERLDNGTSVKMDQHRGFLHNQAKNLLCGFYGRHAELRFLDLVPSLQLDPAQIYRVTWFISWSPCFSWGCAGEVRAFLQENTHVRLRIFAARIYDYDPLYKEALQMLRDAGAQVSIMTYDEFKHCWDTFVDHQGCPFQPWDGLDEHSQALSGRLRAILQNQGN
# Sequence of DNA dC->dU-editing enzyme APOBEC-3G (Q9HC16 whole entry): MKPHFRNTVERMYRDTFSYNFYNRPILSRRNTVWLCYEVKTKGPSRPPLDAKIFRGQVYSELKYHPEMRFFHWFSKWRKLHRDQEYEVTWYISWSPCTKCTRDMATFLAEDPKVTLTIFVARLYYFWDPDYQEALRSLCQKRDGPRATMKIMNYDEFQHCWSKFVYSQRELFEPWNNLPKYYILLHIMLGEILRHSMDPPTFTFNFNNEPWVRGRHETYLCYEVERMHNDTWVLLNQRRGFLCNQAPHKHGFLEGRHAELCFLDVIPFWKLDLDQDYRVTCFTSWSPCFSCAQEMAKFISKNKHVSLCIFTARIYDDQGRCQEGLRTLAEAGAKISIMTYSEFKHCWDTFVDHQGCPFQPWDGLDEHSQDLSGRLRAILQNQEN
# Sequence of Trypsin (P00761 whole entry): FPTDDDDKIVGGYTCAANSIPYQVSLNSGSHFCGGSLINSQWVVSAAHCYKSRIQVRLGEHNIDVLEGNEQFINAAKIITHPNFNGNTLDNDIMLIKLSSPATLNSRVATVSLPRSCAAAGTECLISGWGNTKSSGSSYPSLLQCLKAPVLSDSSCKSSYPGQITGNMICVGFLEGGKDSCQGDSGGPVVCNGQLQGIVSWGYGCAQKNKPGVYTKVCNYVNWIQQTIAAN
# Sequence of SUMO-activating enzyme (Q9UBE0 whole entry): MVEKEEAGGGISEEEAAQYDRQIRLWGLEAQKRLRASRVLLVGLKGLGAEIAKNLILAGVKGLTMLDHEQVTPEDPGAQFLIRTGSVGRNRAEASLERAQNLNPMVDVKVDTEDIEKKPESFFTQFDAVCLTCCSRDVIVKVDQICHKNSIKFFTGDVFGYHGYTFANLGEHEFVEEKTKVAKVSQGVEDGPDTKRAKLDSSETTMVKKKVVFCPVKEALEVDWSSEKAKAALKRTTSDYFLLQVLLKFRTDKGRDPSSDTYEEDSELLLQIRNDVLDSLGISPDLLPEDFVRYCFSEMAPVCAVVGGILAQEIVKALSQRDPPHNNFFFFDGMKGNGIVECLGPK
# Sequence of SUMO-activating enzyme (Q9UBT2 whole entry): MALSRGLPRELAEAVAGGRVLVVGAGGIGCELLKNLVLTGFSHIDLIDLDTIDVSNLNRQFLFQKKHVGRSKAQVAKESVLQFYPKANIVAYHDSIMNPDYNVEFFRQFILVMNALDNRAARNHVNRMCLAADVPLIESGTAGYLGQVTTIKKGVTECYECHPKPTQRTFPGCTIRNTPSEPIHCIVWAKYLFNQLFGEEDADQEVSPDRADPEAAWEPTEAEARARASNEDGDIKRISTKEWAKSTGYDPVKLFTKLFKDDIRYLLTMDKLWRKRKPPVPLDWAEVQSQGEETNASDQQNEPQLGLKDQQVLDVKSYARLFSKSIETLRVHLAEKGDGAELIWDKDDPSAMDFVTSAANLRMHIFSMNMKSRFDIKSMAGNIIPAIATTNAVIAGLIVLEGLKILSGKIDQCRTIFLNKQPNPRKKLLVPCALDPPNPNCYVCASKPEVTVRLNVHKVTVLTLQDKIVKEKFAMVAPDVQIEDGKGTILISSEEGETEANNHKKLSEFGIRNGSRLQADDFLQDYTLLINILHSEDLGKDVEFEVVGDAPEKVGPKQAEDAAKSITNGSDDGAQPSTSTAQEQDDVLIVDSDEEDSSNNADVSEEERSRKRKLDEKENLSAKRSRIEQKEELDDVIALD
compound,measurement,setting,value
Clc1cccc(COn2c(-c3ccc(Cl)cc3Cl)nc3ncccc32)c1,EC50,[1],5.96 µM (active)
same,CC50,[2],14.4 µM (active)
Cc1cc(-c2nnc(S)n2-c2ccc(F)cc2)nn1C,IC50,[3],> 100 µM (inactive)
same,IC50,[4],16.2 µM (active)
CCOc1cccc(CNCCO)c1OCc1ccc(Cl)cc1,EC50,[1],1.88 µM (active)
Nc1c(C(=O)Nc2ccc(Br)cc2)sc2nc(-c3ccco3)ccc12,IC50,[5],22.8 µM (active)
Cc1c(Cc2ccccc2)c(=O)oc2c(C)c(OCC(=O)N3CCC(C(=O)O)CC3)ccc12,AC50,[6],9.51 µM (active)
same,AC50,[7],10.7 µM (active)
O=C(Nc1ccc2nn(-c3ccccc3)nc2c1)c1ccc(Br)o1,IC50,[8],> 50 µM (not active)
same,IC50,[9],3.62 µM (active)
COC(=O)C1=C(C)N(Cc2ccccc2)C(=S)N[C@H]1c1ccccc1,EC50,[1],5.96 µM (active)
O=c1c2ccccc2nc(/C=C/c2ccccc2O)n1-c1ccccc1O,CC50,[2],8.96 µM (active)
same,CC50,[10],20.4 µM (active)
same,IC50,[11],> 25 µM (active)
COc1ccc(-c2nc(CC(=O)O)cs2)cc1OC,AC50,[6],6.53 µM (active)
same,AC50,[7],29.7 µM (active)
Cc1ccc(CNC(=O)c2ccc([N+](=O)[O-])o2)cc1,EC50,[12],8.63 µM (active)
same,CC50,[13],25.5 µM (active)
same,CC50,[14],5.6 µM (active)
same,IC50,[15],160 nM (active)
same,EC50,[16],32.1 µM (active)
same,EC50,[17],2.42 µM (active)
CCOc1ccc(S(=O)(=O)NCc2ccccn2)cc1NC(=O)c1ccccc1,IC50,[18],> 80 µM (inactive)
CCOC(=O)c1ccccc1NS(=O)(=O)c1ccc(OCC)cc1,IC50,[18],> 80 µM (inactive)
CC(NC(=O)OC(C)(C)C)C(=O)Oc1ccc2ccc(=O)oc2c1 (stereo not drawn),IC50,[5],> 100 µM (inactive)
C=CCn1c(-c2ccc([N+](=O)[O-])cc2)n[nH]c1=S,IC50,[3],> 100 µM (inactive)
same,IC50,[4],4.51 µM (active)
CC(OC(=O)CNC(=O)c1ccccc1F)C(=O)Nc1nc(-c2ccccc2)cs1 (stereo not drawn),EC50,[1],1.5 µM (active)
CC(=O)/C(C#N)=C1\NC(=O)C(Cc2ccc(C)c(Cl)c2)S1 (stereo not drawn),CC50,[10],20.6 µM (active)
same,IC50,[11],6.72 µM (active)
C[C@H](CO)N1C[C@H](C)[C@@H](CN(C)S(=O)(=O)c2ccc(Cl)cc2)Oc2c(NC(=O)Nc3ccccc3)cccc2C1=O,AC50,[19],6.84 µM (active)
C[C@@H]1CCCCO[C@@H](CN(C)CC2CCCCC2)[C@@H](C)CN([C@H](C)CO)C(=O)c2cc(NC(=O)Nc3cccc4ccccc34)ccc2O1,AC50,[19],0.757 µM (active)
Cc1ccc(S(=O)(=O)Nc2ccc3c(c2)CC(=O)N([C@H](C)CO)C[C@@H](C)[C@H](CN(C)Cc2ccccc2)O3)cc1,AC50,[19],1.79 µM (active)
Cc1cc(-c2nnc(S)n2/N=C/c2sccc2C)[nH]n1,IC50,[20],74.9 µM (active)
same,IC50,[3],> 100 µM (inactive)
same,IC50,[4],2.44 µM (active)
Sc1nnc(COc2ccccc2)n1/N=C/c1ccco1,IC50,[3],> 100 µM (inactive)
same,IC50,[4],3.38 µM (active)
